Several values for one entry are separate records, joined by “and”; a condition that tells them apart may be missing. Equal entries are not always repeated. Where two headings read alike, the source gives them in different places.

Series [1] deals with intramacrophage amastigotes of L. donovani (LV9). Further details: method as in PMID 16949702. As to conditions: cited from earlier work.
Series [2] concerns the target T1, LieIF4A (Leishmania infantum, UniProt A4HRK0).
T1 construct: His6; made in house; host or cells: Escherichia coli Rosetta
T1 sequence (A4HRK0 1-403): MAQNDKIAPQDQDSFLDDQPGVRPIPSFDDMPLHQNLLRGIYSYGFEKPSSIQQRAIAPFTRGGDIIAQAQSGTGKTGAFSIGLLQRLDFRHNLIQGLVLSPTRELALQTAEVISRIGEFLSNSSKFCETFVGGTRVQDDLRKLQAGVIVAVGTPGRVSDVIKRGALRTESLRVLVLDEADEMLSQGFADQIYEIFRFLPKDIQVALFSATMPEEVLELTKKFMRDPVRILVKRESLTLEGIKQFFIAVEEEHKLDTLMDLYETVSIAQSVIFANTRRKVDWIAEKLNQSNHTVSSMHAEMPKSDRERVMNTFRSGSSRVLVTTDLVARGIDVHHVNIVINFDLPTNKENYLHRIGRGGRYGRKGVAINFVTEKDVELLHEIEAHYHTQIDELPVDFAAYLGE
As to conditions: cited from earlier work; for Ki: ATPase kinetics, calculated from data in ref 7; for IC50: read-out: LieIF4A ATPase assay IC50.

For series [3], the system named is L. infantum promastigotes (LV50). Further details: method as in PMID 29346371. The following applies: cited from earlier work.
For series [4], the target named is T2, eIF4AMus (Mus musculus, UniProt P60843).
T2 construct: His6; made in house; host or cells: Escherichia coli Rosetta
Set-up: method as in PMID 29346371. The following applies: ATPase kinetics, calculated from data in ref 7, cited from earlier work.

Series [5] in a line: MTT cytotoxicity assay on macrophages. The following applies: human. Format: cell-based, human. Here is the method: (§1) The human myelomonocytic cell line, THP-1, was ordered from the American Type Culture Collection (ATCC, TIB-202). Cells were maintained in RPMI 1640/Glutamax-I media (Gibco BRL, Bleiswijk, The Netherlands) supplemented with 10% heat-inactivated fetal calf serum (Gibco, Bleiswijk, The Netherlands) plus penicillin G (100 U/mL) and streptomycin ([…]). THP-1 cells were differentiated to macrophages after their treatment with 20 ng/mL phorbol […] (PMA) (Sigma, St. Louis, MO, USA) for 48 h at 37 °C, 5% CO2. The viability of THP-1 mature macrophage-like cells was determined to be >97% by the Trypan blue dye exclusion assay.
(§2) For the cytotoxicity assay, we used the THP-1-derived macrophages (50,000 cells/well) seeded in 96-well plates and treated with serial concentrations of compounds at the same conditions as for the promastigotes for 24 h.
(§3) Mock-treated THP-1-derived macrophages and promastigotes (1% DMSO) were used as controls. After 24 h of incubation, MTT solution was added at 1 mg/mL to each well and incubated at the appropriate cell temperatures for 4 h. Then, 150 μL of DMSO was added to each well to dissolve the blue formazan, and the optical density (OD) was measured at 560 nm with a microplate reader (MULTISCAN, Labsystems, Thermo Fisher Scientific, Ratastie, Finland).
(§4) The promastigotes and THP-1-derived macrophage viabilities were expressed as the percentage of the viable promastigotes or cells in treated conditions relative to the 1% DMSO cultures, as previously described in [7]. The half maximal inhibitory concentration (IC50) and 50% cytotoxic concentrations (CC50) values were calculated for all the tested compounds by interpolation.

In series [6] the test system is THP-1-derived macrophages. Nature of the series: MTT cytotoxicity assay on macrophages. Format: cell-based, human. The following applies: MTT, 24 h; read-out: Uninfected THP-1-Derived Macrophages CC50. As to the method: as §1, §2, §3, §4
On the technique in general: Formazan colour is commonly taken as a measure of viable cells.

For series [7], the system named is L. infantum promastigotes (LV50). Nature of the series: MTT viability assay on promastigotes. The following applies: for IC50: Leishmania infantum, stationary phase promastigotes, 24 h. Format: cell-based, Leishmania infantum. As to the method: The MON1 L. infantum laboratory strain LV50 originating from a visceral leishmaniasis case (Laboratory of Molecular Epidemiology and Experimental Pathology, Institut Pasteur de Tunis) was used to test the effect of the chemical compounds. Promastigote cultures were inoculated in RPMI-1640 media supplemented with 2 mM L-glutamine, 100 U/mL penicillin, 100 U/mL streptomycin and 10% (v/v) heat-inactivated fetal bovine serum at 22 °C. Promastigotes were collected at the beginning of the stationary phase (day 5), counted, centrifuged and seeded at 10^6/mL in 10 mL of complete media.
The effect of the chemical compounds on the viability of L. infantum promastigotes was evaluated by a colorimetric MTT (3-(4,5-dimethylthiazol-2yl)-2,5-diphenyl tetrazolium bromide) 96-well plate assay as previously described in [7]. This test consisted of a reduction of tetrazolium salt to a […] crystal (blue formazan) by the succinate dehydrogenase activity of mitochondria in living cells, which can be quantified by spectrophotometry. Briefly, 90 μL of LV50 promastigotes harvested from the stationary growth phase of 10^6/mL culture were added to a 96-well culture plate with various concentrations of the selected compounds to obtain a final volume of 100 µL, compound concentrations of 1.5–100 μM, and a final concentration of 1% DMSO per well. Plates were incubated at 25 °C for 24 h.
as §3
The promastigotes and THP-1-derived macrophage viabilities were expressed as the percentage of the viable promastigotes or cells in treated conditions relative to the 1% DMSO cultures, as previously described in [7]. […]

For series [8], the system named is THP-1-derived macrophages. The following applies: cited from earlier work.
Series [9] concerns the target T2, eIF4AMus. Description: RNA-dependent ATPase assay (Malachite green), eIF4AMus. In kind it is biochemical. As to the method:
(§5) A colorimetric assay was used to measure the phosphate released during ATP hydrolysis based on Malachite green, as previously described in [8, 9]. Reactions were performed at 37 °C in 96 well microtiter plates in a final volume of 50 μL. The reaction buffer contained 50 mM potassium acetate, 20 mM MES pH 6, 2 mM dithiothreitol (DTT), 0.1 mg/mL BSA and various concentrations of whole yeast RNA (Type XI-C, Sigma-Aldrich, St. Louis, MO, USA). 5 mM and 1 mM magnesium acetate were added to the LieIF4A and eIF4AMus reactions, respectively. Reactions were initiated by adding ATP; when not noted otherwise, the ATP concentration used was 1 mM. Reactions were stopped after various times with ethylenediaminetetraacetic acid (EDTA, final concentration 60 mM). The absorption at 630 nm was converted to phosphate concentration by a reference curve generated from a dilution series of a known phosphate concentration (0.1 mM Pi standard; Innova Biosciences, Cambridge, UK). Reaction velocities were determined by a linear regression fit of the phosphate generated against time. Only the initial linear phases of the curves were used. Velocities were determined for three independent experiments for each reaction condition. The Michaelis –Menten (Km) and the inhibition kinetics (Ki) constants were obtained by nonlinear regression using GraphPad Prism 8 (GraphPad Software).

Series [10] concerns the target T1, LieIF4A. Description: RNA-dependent ATPase assay (Malachite green), LieIF4A. Format: biochemical. Here is the method:
as §5

Series [11] concerns L. infantum promastigotes. Further details: method as in PMID 21417924. The following applies: cited from earlier work.
Setting [12] is: L. infantum, read-out: Anti-leishmanial activity IC50.

T2 sequence (P60843 whole entry): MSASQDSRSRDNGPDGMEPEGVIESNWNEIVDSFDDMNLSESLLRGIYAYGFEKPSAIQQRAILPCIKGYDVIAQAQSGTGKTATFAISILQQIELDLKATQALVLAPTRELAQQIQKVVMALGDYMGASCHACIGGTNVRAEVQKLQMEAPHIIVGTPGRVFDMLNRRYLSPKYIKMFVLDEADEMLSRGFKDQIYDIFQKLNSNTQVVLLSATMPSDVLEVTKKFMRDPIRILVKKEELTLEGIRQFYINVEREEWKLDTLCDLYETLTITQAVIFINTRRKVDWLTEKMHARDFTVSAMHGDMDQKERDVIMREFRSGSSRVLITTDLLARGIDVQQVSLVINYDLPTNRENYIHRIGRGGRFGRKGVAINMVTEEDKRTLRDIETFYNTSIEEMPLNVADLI

One may read the IC50 as the midpoint of a concentration-inhibition curve. Consider 7-α/β-aminocholesterol, for which the IC50 in [1] is 1.3 µM.

As usually defined, the Ki is a measure of affinity in units of concentration, obtained from inhibition or displacement. Consider `CC(C)CCC[C@@H](C)[C@H]1CC[C@H]2[C@@H]3CC(=O)[C@H]4C[C@@H](O)CC[C@]4(C)[C@H]3CC[C@]12C` [6-ketocholestanol], for which the figures for the Ki in [2] and in series [4] were 316 ± 80.7 µM and 485 ± 94.5 µM, respectively. For the same compound, the IC50 was over 1000 µM in series [2], 39.1 µM in series [3] (setting [12]) and 37 ± 6.6 µM in series [7]. The CC50 at 24 h in series [5] (THP-1-derived macrophages (PMA-differentiated, uninfected), MTT, 24 h, read-out: Uninfected THP-1-Derived Macrophages CC50) is 77 µM. Moreover, the CC50 in [6] came out at 76.9 ± 2.1 µM.

As to `CC(C)CCC[C@@H](C)[C@H]1CC[C@H]2[C@@H]3C[C@H](N)[C@H]4C[C@@H](O)CC[C@]4(C)[C@H]3CC[C@]12C` [6-α-aminocholestanol], the Ki is 19.5 ± 3.27 µM in series [2] and 20.2 µM in series [4] (read-out: Ki). In addition, the IC50 in series [2] was 160 µM; in series [3] (setting [12]) it was 3.6 µM; in series [3] (MTT, measured using data in ref 7, read-out: Promastigotes LV50 IC50) it was 3.64 ± 0.1 µM. In addition, in series [8], the CC50 is 35.2 ± 1.3 µM.

For the compound `CC(C)CCC[C@@H](C)[C@H]1CC[C@H]2[C@@H]3[C@H](N)C=C4C[C@@H](O)CC[C@]4(C)[C@H]3CC[C@]12C` [7-α-aminocholesterol], the values for the concentration for half-maximal inhibition (IC50) in [1] and in [7] were 1.31 µM and 2.29 ± 0.4 µM, respectively. Further, the inhibitory constant (Ki) was 80.5 µM in series [9] (ATPase kinetics, saturating yRNA); 8.6 µM and 8.57 µM in [10] (Ki, ATPase kinetics, saturating yRNA). The compound further displayed a CC50 at 24 h in series [5] (Uninfected THP-1-Derived Macrophages CC50) of 17.5 ± 3.4 µM. Further, in [10] (Ki eIF4AMus / Ki LieIF4A), the “Higher affinity (Ki) for LieIF4A than for eIF4AMus” value is listed as ~ 9.4 fold.

`CC(C)CCC[C@@H](C)[C@H]1CC[C@H]2[C@@H]3[C@@H](CN)C=C4C[C@@H](O)CC[C@]4(C)[C@H]3CC[C@]12C` [7-β-aminomethylcholesterol]: the half-maximal inhibitory concentration (IC50) in series [1] is 1.3 µM.

The Km is the substrate concentration at which the rate is half of its maximum. With `Nc1ncnc2c1ncn2[C@@H]1O[C@H](COP(=O)(O)OP(=O)(O)OP(=O)(O)O)[C@@H](O)[C@H]1O` [ATP], in [2] (saturating total yeast RNA, control DMSO, no test compound, read-out: Km (ATP hydrolysis)), the Km was 150 ± 20 µM.

As for `CC(C)CCC[C@@H](C)[C@H]1CC[C@H]2[C@@H]3CC=C4C[C@@H](O)CC[C@]4(C)[C@H]3CC[C@]12C` [Cholesterol], the “Effect on ATPase kinetics” value in series [9] (300 µM compound) and in [10] (300 µM compound) was “no effect” in each case. The “Effect on promastigotes viability” value in [7] (24 h exposure) is given as “no effect”.

By EC50 is commonly meant the concentration at which the effect is half-maximal. With `COc1ccc([C@@]23Oc4cc(OC)cc(OC)c4[C@]2(O)[C@H](O)[C@H](C(=O)N(C)C)[C@H]3c2ccccc2)cc1` [Rocaglamide A], the “Increase of ATPase activity” value in series [9] (50 µM rocaglamide A vs no compound, 55 ng/µL yRNA) is reported as 6.2 fold; in series [10] (50 µM rocaglamide A vs no compound, 1 ng/µL yRNA), 1.7 fold. In addition, the “Relative activity (to maximum velocity of eIF4AMus without rocaglamide A)” value in [9] (50 µM rocaglamide A, 55 ng/µL yRNA) is given as 2.65 ± 0.03; in series [10] (50 µM rocaglamide A, 1 ng/µL yRNA), 0.80 ± 0.07. The “ATPase activity with compound relative to saturating RNA without compound (more)” value in series [9] (50 µM rocaglamide A, 55 ng/µL yRNA vs 340 ng/µL yRNA) is listed as about 2.7 fold. Moreover, the “V (ATPase reaction velocity)” value was 2.55 ± 0.03 µM/min in series [9] (50 µM rocaglamide A, 55 ng/µL yRNA, 1 mM ATP, 1200 nM protein, 10% DMSO) and 0.77 ± 0.07 µM/min in series [10] (50 µM rocaglamide A, 1 ng/µL yRNA, 1 mM ATP, 820 nM protein, 10% DMSO). In [11], the half-maximal effective concentration (EC50) was 16.5 µM. Further, the “ATPase activity with compound relative to saturating RNA without compound (less)” value in [10] (50 µM rocaglamide A, 1 ng/µL yRNA vs 340 ng/µL yRNA) was 2.3 fold.

The record behind these values is article PMC9502374, “Enzymatic and Molecular Characterization of Anti-Leishmania Molecules That Differently Target Leishmania and Mammalian eIF4A Proteins, LieIF4A and eIF4AMus” (Molecules, 2022).
